According to paper PMC8667944 (Journal of Enzyme Inhibition and Medicinal Chemistry, 2021):

Each compound was assayed against T1, NgCA (Neisseria gonorrhoeae, UniProt Q50940) (assay: stopped-flow CO2 hydration assay). Details: not given.
T1 construct: gene cah; recombinant enzyme obtained in-house
T1 sequence (Q50940 27-252): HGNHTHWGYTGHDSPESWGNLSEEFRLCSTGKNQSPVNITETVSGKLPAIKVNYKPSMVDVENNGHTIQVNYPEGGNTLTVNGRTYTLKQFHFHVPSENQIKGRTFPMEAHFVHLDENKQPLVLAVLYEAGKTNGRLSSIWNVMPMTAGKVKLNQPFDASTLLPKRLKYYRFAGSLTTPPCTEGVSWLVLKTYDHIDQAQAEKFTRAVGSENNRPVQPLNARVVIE
Type: biochemical
Compound `S=C(S)N1CCNCC1` [compound 28, 28] has a Ki of 276 nM. Compound `S=C(S)N1CCCCC1` [compound 17, 17] has a Ki of 731 nM.

Same assay, conditions: read-out: Ki (nM)^a / NgCA
Work on `CC(=O)NC1CCCN(C(=S)S)C1` (stereo not drawn) [compound 15, 15] yielded a Ki of 451 nM. For `CN(Cc1ccccc1)C(=S)S` [compound 24, 24], the Ki was 654 nM. With `S=C(S)N[C@H]1CN2CCC1CC2` [compound 16, 16] the Ki was 518 nM. In the case of `OC1CCCN(C(=S)S)C1` (stereo not drawn) [compound 10, 10], the Ki is reported as 367 nM. Compound `NS(=O)(=O)c1ccc(CCNC(=S)S)cc1` [compound 1, 1] has a Ki of 83.7 nM. `CCCCN(CCCC)C(=S)S` [compound 25, 25] gave a Ki of 460 nM. `CCCCN(CC)C(=S)S` [compound 27, 27] gave a Ki of 577 nM. Work on `O=C(O)[C@H]1CCCN(C(=S)S)C1` [compound 14, 14] yielded a Ki of 335 nM. `S=C(S)N[C@@H]1CN2CCC1CC2` [compound 11, 11] showed a Ki of 473 nM. For `O=C(O)C1COCCN1C(=S)S` (stereo not drawn) [compound 18, 18], the Ki was 672 nM. `S=C(S)N1CCOCC1` [compound 23, 23] was tested, and the Ki was 483 nM. With `S=C(S)N1CCN(C(=S)S)CC1` [compound 29, 29] the Ki was 136 nM. With `CCCN(CCC)C(=S)S` [compound 26, 26] the Ki was 522 nM. `O=C(O)C1CCCN(C(=S)S)C1` (racemic) [compound 9, 9] was tested, and the Ki was 297 nM. `OCCCCNC(=S)S` [compound 4, 4] showed a Ki of 438 nM. Work on `CC(C)(C)OC(=O)NC1CCCN(C(=S)S)C1` (stereo not drawn) [compound 6, 6] yielded a Ki of 538 nM. With `O=C(O)C1CCN(C(=S)S)CC1` [compound 8, 8] the Ki was 514 nM. In the case of `O=C(CN1CCN(C(=S)S)CC1)NC1CCCCC1` [compound 20, 20], the Ki is reported as 84.4 nM. `S=C(S)NC1CN2CCC1CC2` (racemic) [compound 12, 12] showed a Ki of 482 nM. Compound `OCCCCCNC(=S)S` [compound 21, 21] has a Ki of 454 nM. Compound `CC1COCCN1C(=S)S` (stereo not drawn) [compound 19, 19] has a Ki of 723 nM. `N#CC1(c2ccccc2)CCN(C(=S)S)CC1` [compound 30, 30] showed a Ki of 365 nM. With `CN(C)CCNC(=S)S` [compound 3, 3] the Ki was 568 nM. `O=C(O)C1CCCCN1C(=S)S` (stereo not drawn) [compound 7, 7] gave a Ki of 827 nM. Compound `O=C(O)[C@@H]1CCCN(C(=S)S)C1` [compound 13, 13] has a Ki of 242 nM. `OCCCNC(=S)S` [compound 5, 5] was tested, and the Ki was 413 nM. For `S=C(S)NCCc1ccccc1` [compound 2, 2], the Ki was 259 nM. For `CC(C)CN(CC(C)C)C(=S)S` [compound 22, 22], the Ki was 554 nM.
